Here are results for 7 molecules from patent US6200762A, “Photon reducing agents and compositions for fluorescence assays” (Aurora Biosciences Corporation, priority 1998, dated 2001).

Molecules are shown by their SMILES. Where a name gives a salt, the structure may show the parent alone.

Data set [1] in a line: Effect of 50% methanol on coumarin fluorescence and phenol red absorbance (dye stacking). It is filed as physicochemical. As for the experimental part: To further investigate the ability of a photon reducing agent to reduce fluorescence of a solution, fluorescence of a dye in the presence of a photon reducing agent was monitored in the presence and absence of methanol.
[…] A 10 μM solution of 6-chloro-7-hydroxy coumarin-3-carboxylate was prepared in 39 mM phosphate buffer pH 7.5 and in a 1:1 mixture of same phosphate buffer and methanol. 1% (vol/vol) of a 100 mM aqueous Phenol Red stock solution was added to the solutions.
The presence of methanol increased fluorescence compared to an all aqueous buffer.

A short description of data set [2]: Absorption maxima of dyes. Type of data set: physicochemical. The conditions noted are these: for Absorption maximum: main value.
Data set [3] in a line: Reduction of front face fluorescence of a coumarin solution by 1 mM phenol red. The conditions noted are these: 0.5 μM coumarin, phosphate buffer pH 7.5 / 50% methanol. As for the experimental part:
To investigate the ability of a photon reducing agent to reduce fluorescence of a solution, emission of a fluorophore from a sample was monitored in the presence and absence of a photon reducing agent.
Fluorescence from a solution of a blue fluorescent dye, 6-chloro-7-hydroxy coumarin 3-carboxylate, was determined in the presence and absence of a 1 mM phenol red as the photon reducing agent. A solution of 0.5 μM 6-chloro-7-hydroxy coumarin-3-carboxylate in solvent containing 50% (vol/vol) aqueous 39 mM phosphate buffer pH 7.5 and 50% (vol/vol) methanol was prepared. After taking a front face fluorescence spectrum of this solution on a Spex Fluorolog 2, 1% (vol/vol) of a 100 mM aqueous Phenol Red stock solution was added and another spectrum taken. Front face fluorescence refers to exciting the sample at a right angle to the sample surface and collecting emitted light (for example, from the excited region or emission region) at 12.5 degrees from such angle of excitation.

A short description of data set [4]: Reduction of coumarin fluorescence as a function of path length. The conditions noted are these: 10 μM coumarin + 1 mM phenol red, capillary. The procedure: To further investigate the ability of photon reducing agents to reduce fluorescence emitted from a solution, fluorescence emitted from a solution containing a fluorophore in the presence of a photon reducing agent was monitored as a function sample thickness.
A photon reducing agent, phenol red, was tested with a fluorophore, coumarin, as a function of sample thickness (path length). The experiment was conducted using a microscope equipped with epifluorescence. The liquid samples were drawn into low fluorescence capillary tubes of fixed path length (Vitro Dynamics, Rockaway N.J.) as indicated in the graphs. The following samples were evaluated:
1) 10 μM coumarin (diamonds)
2) 10 μM coumarin+1 mM phenol red (squares)
3) 10 μM coumarin+5% (vol/vol) Schilling Red (triangles).
The samples were excited using a 405/20 filter via a 425 dichroic reflector through a 20× objective (Zeiss 20×Fluar). Emitted light was filtered through a 460/50 filter and detected by an intensified CCD camera (Stanford Photonics, Menlo Park, Calif.). The detector output was converted to a 512×512 pixel eight-bit digital image. The data reflect the average intensity within a 20×20 pixel area within the capillary. The background intensity of the field was subtracted from all values.

For data set [5] the following is noted: pH 7.15.
Data set [6] is described as follows: Reduction of solution fluorescence using non-dye quenchers and particulates. The conditions noted are these: 10 μM coumarin, pH 7.5.

In the case of `O=C(O)c1cc2cc(Cl)c(O)cc2oc1=O` [6-chloro-7-hydroxy coumarin-3-carboxylate], the “increase of fluorescence by 50% methanol buffer” value in data set [1] (in the absence of a photon reducing agent) is “about 30%”.
Molecule `CC(=O)Nc1ccc(N=Nc2c(N)ccc3cc(S(=O)(=O)[O-])cc(O)c23)c(S(=O)(=O)[O-])c1.[Na+].[Na+]` [Acid Red 37] returned an Absorption maximum in data set [2] of 513 nm.
Consider `O=S1(=O)OC(c2ccc(O)cc2)(c2ccc(O)cc2)c2ccccc21` [Phenol Red], for which, in data set [3], the “reduction of front face fluorescence” value is recorded as 70 fold. Further, the “decrease of absorbance by 50% methanol buffer” value in data set [1] (at the emission wavelength of the coumarin) is listed as “about 20%”. For the same molecule, in data set [2], the Absorption maximum turned out to be 557 nm. Further, the “Absorption maximum (second value, in parentheses)” value in data set [2] (value in parentheses) was determined as 423 nm. Further, the “attenuation of coumarin fluorescence” value in data set [4] is recorded as “significantly attenuated”.
The molecule `O=C(O)c1nn(-c2ccc(S(=O)(=O)O)cc2)c(O)c1N=Nc1ccc(S(=O)(=O)O)cc1` [Tartrazine] gave an Absorption maximum in data set [2] of 425 nm.
`Cc1cc(-c2ccc(/N=N/c3c(S(=O)(=O)O)cc4cc(S(=O)(=O)O)cc(N)c4c3O)c(C)c2)ccc1/N=N/c1c(S(=O)(=O)O)cc2cc(S(=O)(=O)O)cc(N)c2c1O` [Trypan Blue] came in with an Absorption maximum in data set [2] of 607 nm.
Consider `[Cl][Ni][Cl]` [nickel (II) salts, nickel (II) chloride], for which, in data set [5], the “concentration at which coumarin fluorescence can be reduced” value is recorded as “low millimolar range”.
On to `NCCN(CCN)CCN` [tris(2-aminoethyl)amine], for which the “concentration typically required (collisional quenchers)” value in data set [6] was “higher than 100 mM”.
